Source: patent EP2112152A1, “Dihydropteridinones as Plk Inhibitors” (GPC Biotech AG, priority 2008, dated 2009)
Read-outs that look alike come from different tables or passages of the source.

Tests used:
Type in all cases: cell-based
HCT 116 = assay: SRB cell proliferation assay, HCT 116; settings: Homo sapiens, 72 hours, SRB assay, read-out: CELLULAR IC50 HCT 116
Procedure: (§1) We observed the surprising finding that compounds of the invention were useful in inhibiting proliferation of tumor cell lines (see Table 3).
(§2) Cells were exposed to the test compounds at various concentrations appropriate to determine an IC50 for 72 hours. Cell proliferation was measured using the SRB assay according to Shekan et al (J Natl Cancer Inst (1990) 82, 1107-112) in order to estimate the IC50 values shown in Table 3. Briefly, cells were plated in 96 well dishes 24 hours prior to compound addition at the densities specified in Table 5.1. The assay was terminated with the addition of cold TCA to a final concentration of 10% after growth medium has been removed and the plates were incubated over night at 4°C. The plates were then washed 5 times with water and 100µl of a Sulforhodamine B solution (4%) was added to each well. The plates were then incubated for 10 minutes at room temperature before removal of unbound dye by washing with 1% acetic acid. The bound dye was solubilised with 10 mM Trizma base and the absorbance read at OD520.
(§3) Inhibitory activity of the compounds (IC) was calculated as % inhibition of cell proliferation compared to cells treated with the solvent (DMSO).
(§4) Table 8.1: 18-Cell Line Panel

HT-29 = assay: SRB cell proliferation assay, HT-29; settings: Homo sapiens, 72 hours, SRB assay, read-out: CELLULAR IC50 HT-29
Procedure: as §1, §2, §3, §4

IMR-90 = assay: SRB cell proliferation assay, IMR-90; settings: Homo sapiens, 72 hours, SRB assay, slow cycling cell line, read-out: CELLULAR IC50 IMR-90
Procedure: as §1, §2, §3, §4

Plk1 = Plk1 (Homo sapiens, UniProt P53350); assay: Cellular Plk1 kinase activity: nucleophosmin (B23) Ser4 phosphorylation in HCT116 cells (MSD electrochemiluminescence); set-up: host or cells: HCT116; settings: 100 ng/ml nocodazole, 4 hours after compound addition, read-out: Biochemical IC50 Nucleophosmin assay
Chain of Plk1 (P53350 whole entry, species assumed): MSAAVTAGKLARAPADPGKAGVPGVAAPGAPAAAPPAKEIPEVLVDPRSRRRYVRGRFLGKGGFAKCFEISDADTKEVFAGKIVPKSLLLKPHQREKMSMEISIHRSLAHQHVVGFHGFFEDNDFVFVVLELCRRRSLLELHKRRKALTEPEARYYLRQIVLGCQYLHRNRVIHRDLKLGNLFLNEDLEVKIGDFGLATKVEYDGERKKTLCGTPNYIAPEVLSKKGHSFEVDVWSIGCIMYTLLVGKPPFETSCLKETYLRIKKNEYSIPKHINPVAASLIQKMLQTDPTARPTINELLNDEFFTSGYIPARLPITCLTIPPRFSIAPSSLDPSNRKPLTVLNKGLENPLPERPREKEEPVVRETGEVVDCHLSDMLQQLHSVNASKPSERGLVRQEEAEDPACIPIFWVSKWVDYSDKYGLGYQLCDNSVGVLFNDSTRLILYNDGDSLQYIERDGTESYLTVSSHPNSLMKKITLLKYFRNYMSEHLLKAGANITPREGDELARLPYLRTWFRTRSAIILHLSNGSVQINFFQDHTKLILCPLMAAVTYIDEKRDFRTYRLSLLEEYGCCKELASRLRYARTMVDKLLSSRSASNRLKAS
Procedure: We observed the surprising finding that compounds of the invention were able to penetrate cell membranes and retained their activity as Plk1 inhibitors against native Plk1 expressed within living cancer cells.
Cellular Plk1 kinase activity was measured by quantification of nucleophosmin (B23) Ser4 phosphorylation in a cancer cell line. Nucleophosmin (B23) Ser4 is phosphorylated by Plk1, and this phosphorylation can be specifically detected by cross-reactivity of a phospho-Mek1/2 antibody that is able to recognizes a mitotic-specific phosphorylated form of nucleophosmin (B23) in a nocodazole dependent way (Zhang, H., Shi, X., Paddon, H., Hampong, M., Dai, W., and Pelech, S. (2004) B23/Nuleophosmin Serin 4 Phosphorylation Mediates Mitotic Functions of Polo-like Kinase 1. J. Biol. Chem., 279(34), 35726-35734).
Briefly, HCT116 cells (ATCC, Order No. CCL-247) were plated in 96 well dishes 24 hours prior to nocodazole treatment at 25 000 cells per well. Cells were then treated with 100 ng/ml nocodazole (Sigma-Aldrich, # M1404). 20 hours after nocodazole treatment, cells were exposed to the test compounds at various concentrations appropriate to determine an IC50. 4 hours after compound addition, medium was carefully removed and 120 µl of Complete Tris Lysis Buffer (R60TX; MSD, Gaithersburg MD) was added to each well. Samples were then stored at -20°C.
The level of nucleophosmin (B23) Ser4 phosphorylation in these cell lysis samples was estimated by electrochemiluminescence detection using the Meso Scale Discovery ("MSD") Technology Platform (MSD, Gaithersburg MD). The protocol used was as recommended by the manufacturer with the use of a phospho-Mek1/2 antibody (Cell Signalling, #9121) as primary antibody, and is as follows.
The cell lysates were thawed at room temperature and 40 µl were incubated on 96-well MULTI-ARRAY High Bind plates (L11XB; MSD) for 1.5 - 2 hours at room temperature. The supernatants were then removed and 150 µl of a 5% (w/v) solution of Blocker A (R93AA; MSD) in Tris Wash Buffer (R61TX; MSD) were added to each well. The plates were then incubated for 1 hour at room temperature before removal of the Blocker A solution and washed 4 times with 200 µl Tris Wash Buffer. 25 µl primary antibody (anti-phospho-MEK1/2, Cell Signalling, #9121, rabbit polyclonal), diluted 1:250 in a 1% (w/v) solution of Blocker A in Tris Wash Buffer, were added to each well. The plates were then incubated for 1 hour at room temperature before removal of the antibody solution and washed 4 times with 200 µl Tris Wash Buffer. Then, 25 µl of labelled secondary antibody (SULFO-TAG Goat Anti-Rabbit IgGAntibody (R32AB; MSD), diluted 1:500 in a 1% (w/v) solution of Blocker A in Tris Wash Buffer) were added to each well. The plates were then incubated for 1 hour at room temperature before removal of the antibody solution and washed 4 times with 200 µl Tris Wash Buffer. Then, […] of 1x Read Buffer T (R92TC; MSD) were carefully added to each well and the plates were quantitatively detected for each well with a SECTOR™ Imager 6000 (MSD).
Inhibitory activity of the compounds (IC) was calculated as % inhibition of nucleophosmin (B23) Ser4 phosphorylation compared to cells not treated with nocodazole.

| Compound | IC50 (HCT 116; HCT-116, 72 h) [nM] | IC50 (HT-29; HT-29, 72 h) [nM] | IC50 (Plk1) [nM] | IC50 (IMR-90) [nM] | IC50 (HCT 116; HCT-116) [nM] | IC50 (HT-29; HT-29) [nM] |
| --- | --- | --- | --- | --- | --- | --- |
| CCC1C(=O)N(C)c2cnc(Nc3ccc(C(=O)NCc4ccc(N5CCN(C)CC5)cc4)cc3OC)nc2N1N(C)C (stereo not drawn) [Compound 11, 4-(8-Dimethylamino-7-ethyl-5-methyl-6-oxo-5,6,7,8-tetrahydro-pteridin-2-ylamino)-3-methoxy-N-[4-(4-methyl-piperazin-1-yl)-benzyl]-benzamide] |  |  | < 100 | > 1000 | < 1000 | < 1000 |
| CCC1C(=O)N(C)c2cnc(Nc3ccc(C(=O)NC4CCN(C)CC4)cc3OC)nc2N1N(C)CC1CC1 (stereo not drawn) [Compound 17, 4-[8-(Cyclopropylmethyl-methyl-amino)-7-ethyl-5-methyl-6-oxo-5,6,7,8-tetrahydro-pteridin-2-ylamino]-3-methoxy-N-(1-methyl-piperidin-4-yl)-benzamide] | < 1000 | < 1000 | < 500 | > 1000 |  |  |
| CCC1C(=O)N(C)c2cnc(Nc3ccc(C(=O)NC4CCN(C)CC4)cc3OC)nc2N1N(C)CC(C)C (stereo not drawn) [Compound 22, 4-[7-Ethyl-8-(isobutyl-methyl-amino)-5-methyl-6-oxo-5,6,7,8-tetrahydro-pteridin-2-ylamino]-3-methoxy-N-(1-methyl-piperidin-4-yl)-benzamide] | < 1000 | < 1000 | < 100 | > 1000 |  |  |
| CCC1C(=O)N(C)c2cnc(Nc3ccc(C(=O)NC4CCN(C)CC4)cc3OC)nc2N1N(C)CC1CCCC1 (stereo not drawn) [Compound 27, 4-[8-(Cyclopentylmethyl-methyl-amino)-7-ethyl-5-methyl-6-oxo-5,6,7,8-tetrahydro-pteridin-2-ylamino]-3-methoxy-N-(1-methyl-piperidin-4-yl)-benzamide] | < 1000 | < 1000 | < 100 | > 1000 |  |  |
| CCC1C(=O)N(C)c2cnc(Nc3ccc(C(=O)NC4CCN(C)CC4)cc3OC)nc2N1NC (stereo not drawn) [Compound 30, 4-(7-Ethyl-5-methyl-8-methylamino-6-oxo-5,6,7,8-tetrahydro-pteridin-2-ylamino)-3-methoxy-N-(1-methyl-piperidin-4-yl)-benzamide] | < 1000 | < 1000 | < 100 | > 1000 |  |  |
| CCC1C(=O)N(C)c2cnc(Nc3ccc(C(=O)NC4CCN(C)CC4)cc3OC)nc2N1N(C)CC1CCC1 (stereo not drawn) [Compound 33, 4-[8-(Cyclobutylmethyl-methyl-amino)-7-ethyl-5-methyl-6-oxo-5,6,7,8-tetrahydro-pteridin-2-ylamino]-3-methoxy-N-(1-methyl-piperidin-4-yl)-benzamide] | < 1000 | < 1000 | < 100 | > 1000 |  |  |

Continued, in another order:

| IC50 (HCT 116; HCT-116, 72 h) [nM] | IC50 (HT-29; HT-29, 72 h) [nM] | IC50 (Plk1) [nM] | Compound | IC50 (IMR-90) [nM] | IC50 (HCT 116; HCT-116) [nM] | IC50 (HT-29; HT-29) [nM] |
| --- | --- | --- | --- | --- | --- | --- |
| < 1000 | < 1000 | < 100 | CCC1C(=O)N(C)c2cnc(Nc3ccc(C(=O)NCCN4CCCC4)cc3OC)nc2N1N(C)C (stereo not drawn) [Compound 2, 4-(8-Dimethylamino-7-ethyl-5-methyl-6-oxo-5,6,7,8-tetrahydro-pteridin-2-ylamino)-3-methoxy-N-(2-pyrrolidin-1-yl-ethyl)-benzamide] | > 1000 |  |  |
| < 1000 | < 1000 | < 100 | CCC1C(=O)N(C)c2cnc(Nc3ccc(C(=O)NCC4CCN(CC)CC4)cc3OC)nc2N1N(C)C (stereo not drawn) [Compound 3, 4-(8-Dimethylamino-7-ethyl-5-methyl-6-oxo-5,6,7,8-tetrahydro-pteridin-2-ylamino)-N-(1-ethyl-piperidin-4-ylmethyl)-3-methoxy-benzamide] | > 1000 |  |  |
| < 1000 | < 1000 | < 100 | CCC1C(=O)N(C)c2cnc(Nc3ccc(C(=O)NC4CCN(C(C)C)CC4)cc3OC)nc2N1N(C)C (stereo not drawn) [Compound 4, 4-(8-Dimethylamino-7-ethyl-5-methyl-6-oxo-5,6,7,8-tetrahydro-pteridin-2-ylamino)-N-(1-isopropyl-piperidin-4-yl)-3-methoxy-benzamide] | > 1000 |  |  |
| < 1000 | < 1000 | < 100 | CCC1C(=O)N(C)c2cnc(Nc3ccc(C(=O)NCC4CCN(Cc5ccccc5)CC4)cc3OC)nc2N1N(C)C (stereo not drawn) [Compound 12, N-(1-Benzyl-piperidin-4-ylmethyl)-4-(8-dimethylamino-7-ethyl-5-methyl-6-oxo-5,6,7,8-tetrahydro-pteridin-2-ylamino)-3-methoxy-benzamide] | > 1000 |  |  |
| < 1000 | < 1000 | < 100 | CCC1C(=O)N(C)c2cnc(Nc3ccc(C(=O)NC4CCN(C)CC4)cc3OC)nc2N1N(C)Cc1ccccc1 (stereo not drawn) [Compound 15, 4-[8-(Benzyl-methyl-amino)-7-ethyl-5-methyl-6-oxo-5,6,7,8-tetrahydro-pteridin-2-ylamino]-3-methoxy-N-(1-methyl-piperidin-4-yl)-benzamide] | > 1000 |  |  |
| < 1000 | < 1000 | < 100 | CCCN(C)N1c2nc(Nc3ccc(C(=O)NC4CCN(C)CC4)cc3OC)ncc2N(C)C(=O)C1CC (stereo not drawn) [Compound 20, 4-[7-Ethyl-5-methyl-8-(methyl-propyl-amino)-6-oxo-5,6,7,8-tetrahydro-pteridin-2-ylamino]-3-methoxy-N-(1-methyl-piperidin-4-yl)-benzamide] | > 1000 |  |  |
| < 1000 | < 1000 | < 500 | CCC1C(=O)N(C)c2cnc(Nc3ccc(C(=O)NCC4CCN(CC)CC4)cc3OC)nc2N1N(C)Cc1ccccc1 (stereo not drawn) [Compound 21, 4-[8-(Benzyl-methyl-amino)-7-ethyl-5-methyl-6-oxo-5,6,7,8-tetrahydro-pteridin-2-ylamino]-N-(1-ethyl-piperidin-4-ylmethyl)-3-methoxy-benzamide] | > 1000 |  |  |
| < 1000 | < 1000 | < 100 | CCC1C(=O)N(C)c2cnc(Nc3ccc(C(=O)NCC4CCN(CC)CC4)cc3OC)nc2N1N(C)CC(C)C (stereo not drawn) [Compound 23, 4-[7-Ethyl-8-(isobutyl-methyl-amino)-5-methyl-6-oxo-5,6,7,8-tetrahydro-pteridin-2-ylamino]-N-(1-ethyl-piperidin-4-ylmethyl)-3-methoxy-benzamide] | > 1000 |  |  |
| < 1000 | < 1000 | < 500 | CCC1C(=O)N(C)c2cnc(Nc3ccc(C(=O)NCC4CCN(CC)CC4)cc3OC)nc2N1NC (stereo not drawn) [Compound 32, 4-(7-Ethyl-5-methyl-8-methylamino-6-oxo-5,6,7,8-tetrahydro-pteridin-2-ylamino)-N-(1-ethyl-piperidin-4-ylmethyl)-3-methoxy-benzamide] | > 1000 |  |  |
